Results taken from ChEMBL document CHEMBL1201862, “PubChem BioAssay data set” (2004).
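96-well plates; 48 h exposure; 5 concentrations. Endpoints by linear interpolation between flanking doses. Not reached: highest tested concentration assigned. Abbreviation: GI50, concentration required for 50% inhibition of growth.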 The source made the active and inactive calls. No stated cut-off is given here; in the data, active = GI50 up to about 1.1 µM and inactive = higher.

What was measured:
Experiment in all cases: NCI tumour cell line growth inhibition, 48 h
BT-549 = tested on: BT-549
CAKI-1 = tested on: CAKI-1
EKVX = tested on: EKVX
HCT-116 = tested on: HCT-116
HCT-15 = tested on: HCT-15
HT-29 = tested on: HT-29
Hs-578T = tested on: Hs-578T
IGROV-1 = tested on: IGROV-1
MDA-N = tested on: MDA-N
NCI-H226 = tested on: NCI-H226
NCI/ADR-RES = tested on: NCI/ADR-RES
OVCAR-3 = tested on: OVCAR-3
OVCAR-5 = tested on: OVCAR-5
RXF 393 = tested on: RXF 393
SF-539 = tested on: SF-539
SK-MEL-2 = tested on: SK-MEL-2
SN12C = tested on: SN12C
SNB-75 = tested on: SNB-75
T47D = tested on: T47D
UACC-62 = tested on: UACC-62

Compound | GI50 (BT-549) | GI50 (CAKI-1) | GI50 (EKVX) | GI50 (HCT-116) | GI50 (HCT-15) | GI50 (HT-29) | GI50 (Hs-578T) | GI50 (IGROV-1) | GI50 (MDA-N) | GI50 (NCI-H226) | GI50 (NCI/ADR-RES) | GI50 (OVCAR-3) | GI50 (OVCAR-5) | GI50 (RXF 393) | GI50 (SF-539) | GI50 (SK-MEL-2) | GI50 (SN12C) | GI50 (SNB-75) | GI50 (T47D) | GI50 (UACC-62)
Cc1nn(-c2ccccc2)c(C)c1/C=N/NC(=O)c1sc(=S)n(-c2ccccc2)c1N | 9.71 µM (inactive) | 1.56 µM (inactive) | 3.39 µM (inactive) | 4.5 µM (inactive) | 4.89 µM | 2.69 µM (inactive) | 1.85 µM (inactive) | 0.221 µM (active) | 4.19 µM (inactive) | 6.52 µM (inactive) | 3.62 µM (inactive) | 16.1 µM (inactive) | 5.52 µM (inactive) | 1.46 µM (inactive) | 2.39 µM (inactive) | 29 µM (inactive) | 6.28 µM (inactive) | 0.281 µM (active) | 4.2 µM (inactive) | 4.62 µM (inactive)
C[n+]1c(/C=C/c2ccc(O)c3ncccc23)[se]c2ccccc21 | 6.53 µM (inactive) | 5.01 µM (inactive) | 4.25 µM (inactive) | 2.58 µM (inactive) | 0.631 µM | 4.11 µM (inactive) | 15.7 µM (inactive) | 3 µM (inactive) | 5.98 µM (inactive) | 11.5 µM (inactive) | 3.48 µM (inactive) | 1.57 µM (inactive) | 9.86 µM (inactive) | 8.67 µM (inactive) | 2.86 µM (inactive) | 4.26 µM (inactive) | 2.99 µM (inactive) | 12.1 µM (inactive) | 3.2 µM (inactive) | 3.14 µM (inactive)
Cc1c(-c2ccccc2)c(C#N)c2nnn(-c3ccccc3)c(=O)n12 | > 100 µM (inactive) | > 100 µM (inactive) | > 100 µM (inactive) | > 100 µM (inactive) | 36 µM | 29 µM (inactive) | > 100 µM (inactive) | > 100 µM (inactive) | > 100 µM (inactive) | > 100 µM (inactive) | > 100 µM (inactive) | 85.1 µM (inactive) | > 100 µM (inactive) | 81.7 µM (inactive) | > 100 µM (inactive) | > 100 µM (inactive) | > 100 µM (inactive) | > 100 µM (inactive) | 33 µM (inactive) | 92.5 µM (inactive)
Cc1noc2nnn(-c3ccc(Cl)cc3)c(=O)c12 | 3.16 µM (inactive) | 2.05 µM (inactive) | 7.11 µM (inactive) | 2.89 µM (inactive) | 2.31 µM | 4.42 µM (inactive) | 18.6 µM (inactive) | 5.33 µM (inactive) | 6.01 µM (inactive) | 2.61 µM (inactive) | 4.17 µM (inactive) | 2.36 µM (inactive) | 7.23 µM (inactive) | 0.879 µM (active) | 0.223 µM (active) | 3.24 µM (inactive) | 3.89 µM (inactive) | 1.1 µM (active) | 0.614 µM (active) | 4.43 µM (inactive)
